For series [1], the system named is Nalm-6 SF3B1^K700E xenograft tumors. Nature of the series: Splicing modulation and compound concentration in xenograft tumors after single IV dose. Format: in vivo, CB17-SCID mice. Conditions: single IV dose 5 mg/kg. As to the method:
(§1) In addition, the ability of E7107 to modulate splicing was tested in mice bearing human tumor xenografts. Nalm-6 isogenic xenograft mice were generated by subcutaneously implanting 10×10^6 Nalm-6 isogenic cells into the flank of CB17-SCID mice, and tumors from these mice were collected at different timepoints after a single intravenous (IV) dose of E7107 (5 mg/kg) and analyzed to determine compound concentrations and splicing regulation. RNA was isolated from the tumors using RiboPure™ RNA purification kit (Ambion®) and used for NanoString® assay or qPCR. The RNA was retrotranscribed according to the instructions of the SuperScript® VILO™ cDNA synthesis kit (Invitrogen™) and 0.04 μl of cDNA was used for qPCR. qPCR for pre-mRNA EIF4A1 and mature mRNA […] and pharmacokinetic evaluation were performed as described in Eskens, F. A. et al. “Phase I pharmacokinetic and pharmacodynamic study of the first-in-class spliceosome inhibitor E7107 in patients with advanced solid tumors.” Clin Cancer Res 19, 6296-6304, doi:10.1158/1078-0432.CCR-13-0485 (2013). The primers and probes used for ZDHHC16 were the following: FW 5′-[…] (SEQ ID NO: 1194), RW 5′ […] (SEQ ID NO: 1195) and probe 5′ FAM […] (SEQ ID NO: 1196). The primers and probes used for COASY were the following: FW 5′-CGGTGGTGCAAGTGGAA (SEQ ID NO: 1197), RW 5′-[…] (SEQ ID NO: 1198) and probe 5′-FAM-[…] (SEQ ID NO: 1199).

For series [2], the system named is Nalm-6 SF3B1^K700K xenograft tumors. The series is described as above. Format: in vivo, CB17-SCID mice. Conditions: single IV dose 5 mg/kg. As to the method:
as §1

Series [3] relates to Nalm-6 SF3B1^K700E xenograft. Nature of the series: Antitumor activity in subcutaneous Nalm-6 SF3B1^K700E xenograft model. Format: in vivo, CB17-SCID mice. As to the method:
SF3B1 modulator E7107 was tested for antitumor activity in vivo by determining the effect of E7107 in a subcutaneous model of Nalm-6 SF3B1^K700E. […] After this dosing, the animals were monitored until they reached either of the following endpoints: 1) excessive tumor volume measured three times a week (tumor volume calculated by using the ellipsoid formula: […]), or 2) development of any health problem such as paralysis or excessive body weight loss. Partial regression (PR) and complete regression (CR) are defined as 3 consecutive tumor measurements <50% and <30% of starting volume respectively.

Another series deals with SF3B1^WT (Homo sapiens, UniProt O75533+Q7RTV0). Nature of the series: In vitro splicing assay (IVS), Ad2 pre-mRNA substrate, nuclear extracts. Conditions: nuclear extracts from Nalm-6 (SF3B1^WT) cells or 293F cells expressing Flag-tag SF3B1^WT. Set-up: expressed in transfected cells; host or cells: nuclear extract of 293F cells transfected with pFLAG-CMV-2-SF3B1 (the same assay was also run with Nalm-6 nuclear extract). Format: biochemical. As to the method: E7107 is a small-molecule compound that inhibits splicing by targeting the U2 snRNP-associated complex SF3B (Kotake, Y. et al. “Splicing factor SF3b as a target of the antitumor natural product pladienolide.” Nat Chem Biol 3, 570-575, doi:10.1038/nchembio.2007.16 [2007]).
Nuclear extracts were prepared from 293F cells transfected with pFLAG-CMV-2-SF3B1 plasmids, or from isogenic Nalm-6 cells (SBH Sciences). The plasmids were generated by cloning the mxSF3B1 gene into the HindIII and KpnI sites of pFLAG-CMV2 (Sigma), and the mutations mxSF3B1^K700E, mxsF3B1^R1074H and mxSF3B1^K700E-R1074H were introduced using […]. Cell pellets were resuspended in hypotonic buffer (10 mM HEPES pH 7.9, 1.5 mM MgCl2, 10 mM KCl, 0.2 mM PMSF, and 0.5 mM DTT; for Nalm-6 cells, 40 mM KCl was used). The suspension was brought up to a total of five packed cell volumes (PCV). After centrifugation, the supernatant was discarded, and the cells were brought up to 3 PCV with hypotonic buffer, and incubated on ice for 10 minutes. Cells were lysed using a dounce homogenizer and then centrifuged. […] Protein concentration was determined using NanoDrop 8000 UV-Vis spectrophotometer (Thermo Scientific). […]

Each structure is given as a SMILES string.

`CC[C@H](O)[C@@H](C)[C@H]1O[C@@H]1C[C@@](C)(O)/C=C/C=C(\C)[C@H]1OC(=O)C[C@H](O)CC[C@@](C)(O)[C@@H](OC(=O)N2CCN(C3CCCCCC3)CC2)/C=C/[C@@H]1C` [Compound E7107]: the “abnormal splicing of COASY and ZDHHC16 in tumor, qPCR” value in series [1] was “downregulated abnormal splicing”. Besides, the “canonical splicing in tumor (EIF4A1 pre-mRNA, SLC25A19 mature mRNA), qPCR” value in series [1] and in series [2] was “modulated canonical splicing” each time. Besides, the “canonical and aberrant splice mRNA isoforms in tumor, NanoString” value in series [1] (timepoints after dose) and in series [2] (timepoints after dose) was “downregulated by E7107 as early as one hour following administration” each time. The “complete regression (CR)” value in series [3] (1.25 mg/kg IV QDx5, n=10) is “all animals (n=10) reached complete regression (CR)”; in series [3] (5 mg/kg IV QDx5), “all Nalm-6 SF3B1^K700E xenograft animals reached CR as early as 9 days post treatment”. Besides, the “complete regressions (CRs), animals” value in series [3] (2.5 mg/kg IV QDx5, by day 9) is 10/10. The mean survival time entry in series [3] (5 mg/kg IV QDx5) was “over 250 days”. Also, the “tolerability of dose levels” value in series [3] (1.25, 2.5 and 5 mg/kg IV QDx5) is given as “well tolerated”. In addition, the “inhibition of splicing of Ad2 pre-mRNA in nuclear extracts” value against SF3B1^WT is “able to inhibit splicing”.

The record behind these values is patent US11761045B2, “Splice variants associated with neomorphic SF3B1 mutants” (Eisai R&D Management Co., Ltd., priority 2015, dated 2023).
